Experimental findings from the NIST ThermoML archive (doi:10.1021/je800842z) are described below.

The nature of data set [1]: refractive index (Na D-line) (dimensionless). The following applies: 293.15 K; 101.33 kPa; Liquid; Standard Abbe refractometry.
The conditions of data set [2]: 293.15 K; 101.33 kPa; Liquid; Pycnometric method.

Numbers after ± are expanded uncertainties.

For the compound `c1ccccc1` [benzene], in data set [1], the refractive index is listed as 1.5011 ± 0.0004. The mass density in data set [2] is reported as 879 ± 1 kg/m3.
The matching figures for `CCOC(C)=O` [ethyl acetate]: 1.3588 ± 0.0004 and 900 ± 1 kg/m3.
The matching figures for `Cc1ccccc1` [toluene]: 1.4967 ± 0.0004 and 866 ± 1 kg/m3.

As a reminder, the refractive index is a measure of how strongly the sample bends light. For orientation: mass density means mass per unit of volume.
